Results taken from patent publication US12187709B2 (Genentech, Inc., priority 2021, dated 2025).

Columns and labels:
[1] = target: Human Cbl-b (residues 40-426) (Homo sapiens (Human), UniProt Q13191); assay: Cbl-b SPR assay; format: binding; details: for Fold of selectivity: C-cbl SPR Kd vs Cbl-b SPR Kd; for Kd: SPR, 20° C.
Procedure, shortened: (§1)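 SPR, multi-cycle, 6-pt 2-fold series, blanks flanking for double referencing; capture 1300-1500 RU; contact 60 s at 40 μl/min; dissoc. 120-1200 s (~4-5 half-lives). 1:1 fit. Chaser variant: single cycle, 5 conc., top 500 nM, 120 s contact, 450 s dissociation.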

Cbl-b = Cbl-b (Homo sapiens (Human), UniProt Q13191); assay: Cbl-b LCK Ub TR-FRET assay (Cbl-b Lck HTRF); format: biochemical; details: for IC50: Cbl-b LCK Ub TR-FRET; for fold-selectivity (Cbl-b over C-cbl) / (fold-selectivity) Cbl-b and C-Cbl Selectivity: ratio C-cbl Lck HTRF IC50 / Cbl-b Lck HTRF IC50
Chain of Cbl-b (Q13191 40-426): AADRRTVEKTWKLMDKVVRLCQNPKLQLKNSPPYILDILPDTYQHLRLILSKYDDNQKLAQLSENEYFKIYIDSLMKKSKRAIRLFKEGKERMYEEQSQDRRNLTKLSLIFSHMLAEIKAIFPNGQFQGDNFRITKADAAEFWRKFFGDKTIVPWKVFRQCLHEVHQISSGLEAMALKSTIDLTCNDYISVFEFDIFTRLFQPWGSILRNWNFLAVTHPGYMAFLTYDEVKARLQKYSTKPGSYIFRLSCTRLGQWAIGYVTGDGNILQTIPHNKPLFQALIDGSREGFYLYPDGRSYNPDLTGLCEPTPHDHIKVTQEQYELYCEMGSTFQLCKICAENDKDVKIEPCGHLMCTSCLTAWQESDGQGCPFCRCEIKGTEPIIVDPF
Procedure, shortened: (§2)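 Signal is read once the detection mix has stood 20 min at ambient temperature. Curves are anchored by DMSO as maximum and by omission of LCK as minimum.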

c-Cbl = c-Cbl (Homo sapiens (Human), UniProt P22681); assay: C-Cbl LCK Ub TR-FRET assay (C-cbl Lck HTRF); format: biochemical
Chain of c-Cbl (P22681 47-435): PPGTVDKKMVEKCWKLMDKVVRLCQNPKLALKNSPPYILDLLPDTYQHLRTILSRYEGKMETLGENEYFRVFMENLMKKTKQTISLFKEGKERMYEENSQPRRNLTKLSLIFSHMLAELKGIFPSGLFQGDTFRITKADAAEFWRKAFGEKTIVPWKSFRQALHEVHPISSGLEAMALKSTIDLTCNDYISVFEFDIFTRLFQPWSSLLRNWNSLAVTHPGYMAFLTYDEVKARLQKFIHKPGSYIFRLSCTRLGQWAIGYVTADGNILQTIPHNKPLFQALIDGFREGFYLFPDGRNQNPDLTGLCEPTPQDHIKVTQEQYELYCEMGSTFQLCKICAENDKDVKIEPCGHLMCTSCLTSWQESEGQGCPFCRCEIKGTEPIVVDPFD
Procedure, shortened: as §2

c-Cbl (residues 47-435) = c-Cbl (residues 47-435) (Homo sapiens (Human), UniProt P22681); assay: c-Cbl SPR assay; format: binding; details: 20° C.
Chain of c-Cbl (residues 47-435) (P22681 47-435): as above
Procedure, shortened: as §1

Chain of Human Cbl-b (residues 40-426) (Q13191 40-426): as the sequence (Q13191 40-426) above

Compound	Fold of selectivity [1] [×]	Kd [1] [µM]	IC50 (Cbl-b) [µM]	fold-selectivity (Cbl-b over C-cbl) (Cbl-b)	IC50 (c-Cbl) [µM]	Kd (c-Cbl (residues 47-435)) [µM]	IC50 (Cbl-b; Example 121) [µM]	(fold-selectivity) Cbl-b and C-Cbl Selectivity (Cbl-b) [x]
Cn1cnnc1[C@]1(c2cc(NC3CCC3)nc(N3Cc4c(cc(CNC5(C)CCC5)cc4C(F)(F)F)C3=O)c2)C[C@H](C)C1 [Compound 67, 2-(6-(cyclobutylamino)-4-((1S,3S)-3-methyl-1-(4-methyl-4H-1,2,4-triazol-3-yl)cyclobutyl)pyridin-2-yl)-6-(((1-methylcyclobutyl)amino)methyl)-4-(trifluoromethyl)isoindolin-1-one]	1.5	0.00036	0.0065	(0.9x)	0.0059	0.00053		
C=C[C@H](C)Nc1cc(N2Cc3c(cc(CNC4(C)CCC4)cc3C(F)(F)F)C2=O)cc([C@]2(c3nncn3C)C[C@H](OC)C2)c1 (single isomer, unassigned) [Compound 220]	13	0.0027	0.013	3.0x	0.039	0.034		
Cn1cnnc1[C@H](c1cccc(N2Cc3c(cc(CNC4(C)CCC4)cc3C(F)(F)F)C2=O)c1)[C@H]1CCOC1 [Compound 169, 2-(3-((S)-(4-methyl-4H-1,2,4-triazol-3-yl)((R)-tetrahydrofuran-3-yl)methyl)phenyl)-6-(((1-methylcyclobutyl)amino)methyl)-4-(trifluoromethyl)isoindolin-1-one]	2.7	0.066	0.072	4.8x	0.34	0.18		
Cn1cnnc1[C@]1(c2cccc(N3Cc4c(Cl)cc(CNC5(C)CCC5)cc4C3=O)c2)C[C@H](Cl)C1 [Compound 452, 4-chloro-2-(3-((1s,3s)-3-chloro-1-(4-methyl-4H-1,2,4-triazol-3-yl)cyclobutyl)phenyl)-6-(((1-methylcyclobutyl)amino)methyl)isoindolin-1-one]	3.3	0.0007			0.0056	0.0024	0.0055	1.0
CC[C@](F)(c1cccc(N2Cc3c(cc(CNC4(C)CCC4)cc3C(F)(F)F)C2=O)c1)c1nncn1C (single isomer, unassigned) [Compound 393]	3.5	0.15	0.19	2.4x	0.46	0.54		
CC[C@H]1C[C@](c2cccc(N3Cc4c(cc(CNC5(C)CCC5)cc4C(F)(F)F)C3=O)c2)(c2nncn2C)C1 [Compound 455, 2-(3-((1s,3r)-3-ethyl-1-(4-methyl-4H-1,2,4-triazol-3-yl)cyclobutyl)phenyl)-6-(((1-methylcyclobutyl)amino)methyl)-4-(trifluoromethyl)isoindolin-1-one]	11	0.0014			0.02	0.015	0.0087	2.3
CC(=O)N(C)[C@H](c1cccc(N2Cc3c(cc(CNC4(C)CCC4)cc3C(F)(F)F)C2=O)c1)c1nncn1C (single isomer, unassigned) [Compound 399]	17	0.49	0.53	12x	6	8.1		
Cn1cnnc1[C@]1(c2cc(NC3CCC3)nc(N3Cc4c(cc(CNC5(C)CCC5)cc4C(F)(F)F)C3=O)c2)C[C@@H](C)C1 [Compound 68, 2-(6-(cyclobutylamino)-4-((1R,3R)-3-methyl-1-(4-methyl-4H-1,2,4-triazol-3-yl)cyclobutyl)pyridin-2-yl)-6-(((1-methylcyclobutyl)amino)methyl)-4-(trifluoromethyl)isoindolin-1-one]	4.3	0.00024	0.0085	(0.8x)	0.0071	0.001		
C[C@H](NC1(C)CCC1)c1cc2c(c(C(F)F)c1)CN(c1cccc([C@H](c3nncn3C)C3COC3)c1)C2=O (single isomer, unassigned) [Compound 413]	5.3	0.0003			0.0071	0.0016	0.0045	1.6
Cn1cnnc1C1(c2cccc(N3Cc4c(cc(CNC5(C)CCC5)cc4C(F)(F)F)C3=O)c2)CCCCC1 [Compound 298, 2-(3-(1-(4-methyl-4H-1,2,4-triazol-3-yl)cyclohexyl)phenyl)-6-(((1-methylcyclobutyl)amino)methyl)-4-(trifluoromethyl)isoindolin-1-one]	5.9	0.48	0.66	2.3x	1.5	2.6		
CO[C@H]1C[C@@](c2cc(NC3CC3)cc(N3Cc4c(cc(CNC5(C)CCC5)cc4C(F)(F)F)C3=O)c2)(c2nncn2C)C1 [Compound 231, 2-(3-(cyclopropylamino)-5-((1s,3s)-3-methoxy-1-(4-methyl-4H-1,2,4-triazol-3-yl)cyclobutyl)phenyl)-6-(((1-methylcyclobutyl)amino)methyl)-4-(trifluoromethyl)isoindolin-1-one]	5.4	0.0015	0.011	1.5x	0.017	0.0081		
CC(=O)C1CC([C@H](c2cccc(N3Cc4c(cc(CNC5(C)CCC5)cc4C(F)(F)F)C3=O)c2)c2nncn2C)C1 (single isomer, unassigned) [Compound 382]	0.8	0.19	0.15	3.0x	0.45	0.15		
CO[C@H]1C[C@@](O)(C(c2cccc(N3Cc4c(cc(CNC5(C)CCC5)cc4C(F)(F)F)C3=O)c2)c2nncn2C)C1 (single isomer, unassigned) [Compound 369]	7.2	0.21	0.24	4.3x	1	1.5		
CO[C@H]1C[C@](c2cccc(N3Cc4c(cc(CN5CC(O)C5)cc4C(F)(F)F)C3=O)c2)(c2nncn2C)C1 [Compound 422, 6-((3-hydroxyazetidin-1-yl)methyl)-2-(3-((1r,3r)-3-methoxy-1-(4-methyl-4H-1,2,4-triazol-3-yl)cyclobutyl)phenyl)-4-(trifluoromethyl)isoindolin-1-one]	5.3	0.34			1.6	1.8	0.22	7.2
CS[C@H]1C[C@@](c2cccc(N3Cc4c(cc(CNC5(C)CCC5)cc4C(F)(F)F)C3=O)c2)(c2nncn2C)C1 [Compound 324, 2-(3-((1s,3s)-1-(4-methyl-4H-1,2,4-triazol-3-yl)-3-(methylthio)cyclobutyl)phenyl)-6-(((1-methylcyclobutyl)amino)methyl)-4-(trifluoromethyl)isoindolin-1-one]	10	0.00057	0.0048	1.5x	0.0071	0.0057		
Cn1cnnc1[C@@H](c1cccc(N2Cc3c(cc(CNC4(C)CCC4)cc3C(F)(F)F)C2=O)c1)C1CCC1 [Compound 258, (R)-2-(3-(cyclobutyl(4-methyl-4H-1,2,4-triazol-3-yl)methyl)phenyl)-6-(((1-methylcyclobutyl)amino)methyl)-4-(trifluoromethyl)isoindolin-1-one]	13	0.17	0.17	5.8x	0.97	2.2		
Cn1cnnc1[C@]1(c2cc(NC3CCCC3)cc(N3Cc4c(cc(CNC5(C)CCC5)cc4C(F)(F)F)C3=O)c2)C[C@H](C)C1 [Compound 177, 2-(3-(cyclopentylamino)-5-((1s,3s)-3-methyl-1-(4-methyl-4H-1,2,4-triazol-3-yl)cyclobutyl)phenyl)-6-(((1-methylcyclobutyl)amino)methyl)-4-(trifluoromethyl)isoindolin-1-one]	10	0.0099	0.059	2.8x	0.18	0.099		
C=C1CC(c2cccc(N3Cc4c(cc(CNC5(C)CCC5)cc4C(F)(F)F)C3=O)c2)(c2nncn2C)C1 [Compound 18, 2-(3-(1-(4-methyl-4H-1,2,4-triazol-3-yl)-3-methylenecyclobutyl)phenyl)-6-(((1-methylcyclobutyl)amino)methyl)-4-(trifluoromethyl)-isoindolin-1-one]	3.7	0.0015	0.0079	(0.97x)	0.0077	0.0056		
Cn1cnnc1C1(c2cccc(N3Cc4c(cc(CNC5(C)CCC5)cc4C(F)F)C3=O)c2)CC2(COC2)C1 [Compound 197, 4-(difluoromethyl)-2-(3-(6-(4-methyl-4H-1,2,4-triazol-3-yl)-2-oxaspiro[3.3]heptan-6-yl)phenyl)-6-(((1-methylcyclobutyl)amino)methyl)isoindolin-1-one]	9.2	0.012	0.037	4.5x	0.16	0.11		
